Experiment: Tissue distribution by quantitative whole-body autoradiography (QWBA)
Assay type: in vivo, male Sprague Dawley and Long-Evans rats
Conditions: for Cmax Ratio (PO/IV) / AUCall Ratio (PO/IV): 15 mg/kg, Group 7 vs Group 4
Description: The study utilized 4 groups of male SD rats (albino), and 3 groups of male LE rats (pigmented); a total of 39 rats. All animals were obtained from Hilltop Lab Animals, Inc. (Scottdale, Pa.). […] Rats in Group 5 were administered a single 2-h IV infusion of [^14C]brincidofovir at a target dose of 2 mg/kg. […] Three dosing formulations (one for high dose IV, one for low dose IV, and one for PO dose) were prepared at QPS on the day of dosing. The IV formulation for Groups 1, 2, 3, and 4 contained a vehicle of 10 mM sodium phosphate buffer in 5% dextrose solution at pH 8.0(±0.1).
Each animal, at their respective termination time points, was euthanized for QWBA analysis immediately after blood collection. One rat per time point per Group was euthanized as listed below.
The blood samples were maintained on wet ice (approximately 4° C.) and then centrifuged to obtain plasma within 1 h of the blood collection time. Centrifuge settings were recorded in the study notebook. Duplicate aliquots of plasma (0.050 mL) were analyzed for radioactivity using direct counting by LSC, and residual plasma was stored at approximately −70° C. and was saved for possible future analysis under a separate study protocol. Residual red blood cells were discarded as radioactive waste.
The pinna, distal limbs, hair, and tail were removed from each frozen carcass and each frozen carcass was embedded in an aqueous suspension of approximately 2% (w/v) carboxymethylcellulose and frozen into a block. The blocks were stored at approximately −20° C. prior to sectioning. Each blocked carcass was mounted on the object stage of a cryomicrotome (Leica CM3600 Cryomacrocut, Nussloch, Germany and Vibratome 9800, St. Louis, Mo.) maintained at approximately −20° C. and internal standards (3), which were plasma fortified with [^14C]-glucose at one concentration (approximately 0.05 μCi/mL), were placed into the frozen blocks, prior to sectioning, and were used for section thickness quality control. A number of whole-body sections (approximately 40 μm thick) were taken in the sagittal plane at various levels of interest using a whole-body cryomicrotome set at −20° C. Sagittal sections (20-50 μm thick) of frozen carcasses were exposed to phosphor imaging plates. Regions of images in tissues were converted to concentrations using standards. All of the major tissues, organs, and biological fluids were represented.
Tissue concentration data was determined for the following tissues and/or contents: adipose (brown and white), adrenal gland, bile (in duct), blood (cardiac), bone, bone marrow, brain (cerebrum, cerebellum, medulla), cecum (and contents), large intestine (and contents), epididymis, esophagus, eye (uvea and lens), Harderian gland, heart, kidney (cortex and medulla), liver, lung, lymph node, pancreas, pituitary gland, prostate gland, salivary gland, seminal vesicles, skeletal muscle, skin (pigmented and non-pigmented), small intestine (and contents), stomach (gastric mucosa and contents), spleen, spinal cord, testis, thymus, thyroid, and urinary bladder (and contents).
The imaging plate and sections were placed in light-tight exposure cassettes, in a copper-lined lead safe, for a 4-day exposure at room temperature. […] Quantification was performed by image densitometry using MCD image analysis software (v. 7.0, Interfocus Imaging Ltd) and a standard curve constructed from the integrated response [i.e., Molecular Dynamics Counts per square millimeter (MDC/mm^2)] and the nominal concentrations of the ^14C-calibration standards. The concentrations of radioactivity were expressed as the μg equivalents of [^14C]brincidofovir per gram sample (μg equiv/g). A lower limit of quantification (LLOQ) was applied to the data (See section 6.7.4).
Tissue concentrations that fell below the LLOQ were identified as being below the quantification limit (BQL). Tissue areas that were not visualized on autoradiographic images were identified as no sample (NS) and reported as BQL.

CCCCCCCCCCCCCCCCOCCCOP(=O)(O)CO[C@H](CO)Cn1ccc(N)nc1=O [[^14C] brincidofovir]
Cmax Ratio (PO/IV) (Liver): 0.16 | AUCall (Liver, 2 h IV infusion 15 mg/kg, Group 4): 2149.7645 μg equiv · h/g | Tissue Concentration (168 h) (Liver, 2 h IV infusion 15 mg/kg, Group 4, LLOQ 0.036): 0.451 μg equiv/g | Tissue Concentration (168 h) (Liver, PO 15 mg/kg, Group 7, LLOQ 0.034): 0.393 μg equiv/g | AUCall (Liver, PO 15 mg/kg, Group 7): 1426.6340 μg equiv · h/g | AUCall Ratio (PO/IV) (Lung): 0.29 | Cmax Ratio (PO/IV) (Lung): 0.16 | AUCall (Lung, 2 h IV infusion 15 mg/kg, Group 4): 180.1960 μg equiv · h/g | Tissue Concentration (168 h) (Lung, 2 h IV infusion 15 mg/kg, Group 4, LLOQ 0.036): 0.178 μg equiv/g | Tissue Concentration (168 h) (Lung, PO 15 mg/kg, Group 7, LLOQ 0.034): 0.065 μg equiv/g | AUCall (Lung, PO 15 mg/kg, Group 7): 53.1145 μg equiv · h/g | AUCall Ratio (PO/IV) (Lymph Node): 0.41 | Cmax Ratio (PO/IV) (Lymph Node): 0.11 | AUCall (Lymph Node, 2 h IV infusion 15 mg/kg, Group 4): 208.8530 μg equiv · h/g | Tissue Concentration (168 h) (Lymph Node, 2 h IV infusion 15 mg/kg, Group 4, LLOQ 0.036): 0.247 μg equiv/g | Tissue Concentration (168 h) (Lymph Node, PO 15 mg/kg, Group 7, LLOQ 0.034): 0.129 μg equiv/g | AUCall (Lymph Node, PO 15 mg/kg, Group 7): 85.04 μg equiv · h/g | AUCall Ratio (PO/IV) (Pancreas): 0.29 | Cmax Ratio (PO/IV) (Pancreas): 0.13 | AUCall (Pancreas, 2 h IV infusion 15 mg/kg, Group 4): 36.2010 μg equiv · h/g | Tissue Concentration (168 h) (Pancreas, 2 h IV infusion 15 mg/kg, Group 4, LLOQ 0.036): BQL | Tissue Concentration (168 h) (Pancreas, PO 15 mg/kg, Group 7, LLOQ 0.034): BQL | AUCall (Pancreas, PO 15 mg/kg, Group 7): 10.3720 μg equiv · h/g | AUCall Ratio (PO/IV) (Pituitary Gland): 0.20 | Cmax Ratio (PO/IV) (Pituitary Gland): 0.05 | AUCall (Pituitary Gland, 2 h IV infusion 15 mg/kg, Group 4): 155.1085 μg equiv · h/g | Tissue Concentration (168 h) (Pituitary Gland, 2 h IV infusion 15 mg/kg, Group 4, LLOQ 0.036): 0.189 μg equiv/g | Tissue Concentration (168 h) (Pituitary Gland, PO 15 mg/kg, Group 7, LLOQ 0.034): 0.042 μg equiv/g | AUCall (Pituitary Gland, PO 15 mg/kg, Group 7): 30.5073 μg equiv · h/g | AUCall Ratio (PO/IV) (Prostate Gland): 0.62 | Cmax Ratio (PO/IV) (Prostate Gland): 0.30 | AUCall (Prostate Gland, 2 h IV infusion 15 mg/kg, Group 4): 24.3415 μg equiv · h/g | Tissue Concentration (168 h) (Prostate Gland, 2 h IV infusion 15 mg/kg, Group 4, LLOQ 0.036): BQL | Tissue Concentration (168 h) (Prostate Gland, PO 15 mg/kg, Group 7, LLOQ 0.034): BQL | AUCall (Prostate Gland, PO 15 mg/kg, Group 7): 7.6578 μg equiv · h/g | AUCall Ratio (PO/IV) (Salivary Gland): 0.15 | Cmax Ratio (PO/IV) (Salivary Gland): 0.09 | AUCall (Salivary Gland, 2 h IV infusion 15 mg/kg, Group 4): 60.9180 μg equiv · h/g | Tissue Concentration (168 h) (Salivary Gland, 2 h IV infusion 15 mg/kg, Group 4, LLOQ 0.036): 0.056 μg equiv/g | Tissue Concentration (168 h) (Salivary Gland, PO 15 mg/kg, Group 7, LLOQ 0.034): BQL | AUCall (Salivary Gland, PO 15 mg/kg, Group 7): 9.1933 μg equiv · h/g | AUCall Ratio (PO/IV) (Seminal Vesicles): 0.17 | Cmax Ratio (PO/IV) (Seminal Vesicles): 0.45 | AUCall (Seminal Vesicles, 2 h IV infusion 15 mg/kg, Group 4): 297.3580 μg equiv · h/g | Tissue Concentration (168 h) (Seminal Vesicles, 2 h IV infusion 15 mg/kg, Group 4, LLOQ 0.036): 0.361 μg equiv/g | Tissue Concentration (168 h) (Seminal Vesicles, PO 15 mg/kg, Group 7, LLOQ 0.034): 0.063 μg equiv/g | AUCall (Seminal Vesicles, PO 15 mg/kg, Group 7): 50.2500 μg equiv · h/g | AUCall Ratio (PO/IV) (Skeletal Muscle): 0.13 | Cmax Ratio (PO/IV) (Skeletal Muscle): 0.16 | AUCall (Skeletal Muscle, 2 h IV infusion 15 mg/kg, Group 4): 10.3485 μg equiv · h/g | Tissue Concentration (168 h) (Skeletal Muscle, 2 h IV infusion 15 mg/kg, Group 4, LLOQ 0.036): BQL | Tissue Concentration (168 h) (Skeletal Muscle, PO 15 mg/kg, Group 7, LLOQ 0.034): BQL | AUCall (Skeletal Muscle, PO 15 mg/kg, Group 7): 1.3265 μg equiv · h/g | AUCall Ratio (PO/IV) (Skin (non-pigmented)): 0.10 | Cmax Ratio (PO/IV) (Skin (non-pigmented)): 0.17 | AUCall (Skin (non-pigmented), 2 h IV infusion 15 mg/kg, Group 4): 146.2340 μg equiv · h/g

Reference: patent US20170368082A1, “FORMULATIONS OF BRINCIDOFOVIR” (priority 2016, published 2017)
